The nature of data set [1]: Toxicity in male Kunming mouse assessed as effect on GGT level in serum at 100 to 500 mg/kg/day, po measured after 5 weeks. As to conditions: in vivo, 840 h, dose 100-500 mg/kg/day. The format is organism-based.
Data set [2] can be described thus: Toxicity in male Kunming mouse assessed as effect on kidney at 100 to 500 mg/kg/day, po measured after 5 weeks by H and E staining based analysis. The format is organism-based. As to conditions: in vivo, 840 h, dose 100-500 mg/kg/day.
Data set [3] in a line: Drug metabolism in mouse liver microsomes assessed as phoenicein formation measured after 5 mins in presence of NADPH by LC/MS/MS analysis. Type of data set: ADME, Microsome. A general note: Liver microsomes are vesicles of endoplasmic reticulum, rich in cytochrome P450 enzymes.
The nature of data set [4]: Toxicity in female Kunming mouse assessed as effect on spleen to body weight ratio at 100 to 500 mg/kg/day, po measured after 5 weeks. The format is organism-based. As to conditions: in vivo, 840 h, dose 100-500 mg/kg/day.
Data set [5] deals with Mus musculus. Kind of data set: Antiinflammatory activity in DSS-induced male C57BL/6 mouse model of inflammatory bowel disease assessed as increase in colon length at 45 mg/kg/day, po via gavage measured upto 14 days relative to control. As to conditions: time <= 14 day. Type of data set: functional.
Data set [6] is described as follows: Genotoxicity in Salmonella typhimurium by Ames test. The format is toxicity. As to conditions: salmonella enterica subsp. enterica serovar typhimurium. A general note: The Ames test uses bacterial strains that need an amino acid and regain growth without it when mutated back.
Data set [7] is described as follows: Toxicity in male Kunming mouse assessed as lethal dose administered as po measured after 5 weeks. Type of data set: organism-based. As to conditions: in vivo.
The nature of data set [8]: Acute toxicity in male Kunming mouse assessed as effect on kidney 5 g/Kg, po measured after 5 weeks. The format is organism-based. As to conditions: in vivo, 5000 mg/kg, 840 h.
The nature of data set [9]: Toxicity in female Kunming mouse assessed as effect on heart at 100 to 500 mg/kg/day, po measured after 5 weeks by H and E staining based analysis. Type of data set: organism-based. As to conditions: in vivo, 840 h, dose 100-500 mg/kg/day.
Data set [10] is described as follows: Toxicity in female Kunming mouse assessed as effect on heart to body weight ratio at 100 to 500 mg/kg/day, po measured after 5 weeks. As to conditions: in vivo, 840 h, dose 100-500 mg/kg/day. The format is organism-based.
Data set [11] relates to Mus musculus. Kind of data set: Antiinflammatory activity in DSS-induced male C57BL/6 mouse model of inflammatory bowel disease assessed as amelioration of crypts disruption at 50 to 100 microM/Kg by H and E staining based analysis. The format is functional, organism-based. As to conditions: dose 50-100 µM/Kg.
Data set [12] is described as follows: Toxicity in female Kunming mouse assessed as effect on kidney at 100 to 500 mg/kg/day, po measured after 5 weeks by H and E staining based analysis. Type of data set: organism-based. As to conditions: in vivo, 840 h, dose 100-500 mg/kg/day.
The test system of data set [13] is Mus musculus. The experiment in a line: Antiinflammatory activity in DSS-induced male C57BL/6 mouse model of inflammatory bowel disease assessed as reduction in weight loss at 22.5 to 45 mg/kg/day, po via gavage measured upto 14 days. As to conditions: dose 22.5-45 mg/kg/day, time <= 14.0 day. The format is functional, organism-based.
Data set [14] is described as follows: Toxicity in female Kunming mouse assessed as effect on CREA level in serum at 100 to 500 mg/kg/day, po measured after 5 weeks. As to conditions: in vivo, 840 h, dose 100-500 mg/kg/day. Type of data set: organism-based.
Data set [15] is described as follows: Toxicity in male Kunming mouse assessed as effect on ALP level in serum at 100 to 500 mg/kg/day, po measured after 5 weeks. As to conditions: in vivo, 840 h, dose 100-500 mg/kg/day. Type of data set: organism-based.
A short description of data set [16]: Toxicity in female Kunming mouse assessed as effect on lung at 100 to 500 mg/kg/day, po measured after 5 weeks by H and E staining based analysis. The format is organism-based. As to conditions: in vivo, 840 h, dose 100-500 mg/kg/day.
A short description of data set [17]: Toxicity in male Kunming mouse assessed as effect on Cl inorganic salt level in serum at 100 to 500 mg/kg/day, po measured after 5 weeks. As to conditions: in vivo, 840 h, dose 100-500 mg/kg/day. Type of data set: organism-based.
A short description of data set [18]: Toxicity in male Kunming mouse assessed as effect on spleen to body weight ratio at 100 to 500 mg/kg/day, po measured after 5 weeks. As to conditions: in vivo, 840 h, dose 100-500 mg/kg/day. The format is organism-based.
Data set [19] relates to Mus musculus. The experiment in a line: Antiinflammatory activity in DSS-induced male C57BL/6 mouse model assessed as inhibition of IL-22 level in colon at 50 to 100 microM/Kg. The format is functional, organism-based. As to conditions: dose 50-100 µM/Kg.
A short description of data set [20]: Toxicity in male Kunming mouse assessed as effect on kidney to body weight ratio at 100 to 500 mg/kg/day, po measured after 5 weeks. The format is organism-based. As to conditions: in vivo, 840 h, dose 100-500 mg/kg/day.
Data set [21] in a line: Acute toxicity in male Kunming mouse assessed as effect on liver 5 g/Kg, po measured after 5 weeks. As to conditions: in vivo, 5000 mg/kg, 840 h. The format is organism-based.
Data set [22] is described as follows: Toxicity in female Kunming mouse assessed as effect on CK level in serum at 100 to 500 mg/kg/day, po measured after 5 weeks. Type of data set: organism-based. As to conditions: in vivo, 840 h, dose 100-500 mg/kg/day.
Data set [23] can be described thus: Toxicity in female Kunming mouse assessed as effect on body weight loss at 100 to 500 mg/kg/day, po measured after 5 weeks. Type of data set: organism-based. As to conditions: in vivo, 840 h, dose 100-500 mg/kg/day.
Data set [24] can be described thus: Toxicity in male Kunming mouse assessed as effect on liver at 100 to 500 mg/kg/day, po measured after 5 weeks by H and E staining based analysis. As to conditions: in vivo, 840 h, dose 100-500 mg/kg/day. The format is organism-based.
Data set [25] deals with Mus musculus. The experiment in a line: Antiinflammatory activity in DSS-induced male C57BL/6 mouse model of inflammatory bowel disease assessed as increase in colon length at 40 mg/kg/day, ip measured after 14 days relative to control. The format is functional. As to conditions: time 14 day.
Data set [26] has as its system Mus musculus. Kind of data set: Antiinflammatory activity in DSS-induced male C57BL/6 mouse model assessed as effect on JNK phosphorylation level at 50 to 200 microM/Kg by Western blot analysis. Type of data set: functional, organism-based. As to conditions: dose 50-200 µM/Kg. A general note: A western blot detects proteins with antibodies after separation by electrophoresis.

Data set [27] is filed under the species Mus musculus. The experiment in a line: Antiinflammatory activity in DSS-induced male C57BL/6 mouse model of inflammatory bowel disease assessed as reduction in TLR7 level. Type of data set: functional, organism-based.
Data set [28] relates to Mus musculus. The experiment in a line: Antiinflammatory activity in DSS-induced male C57BL/6 mouse model assessed as increase in IL-10 level in colon at 50 to 200 microM/Kg. As to conditions: dose 50-200 µM/Kg. Type of data set: functional, organism-based.
Data set [29] concerns Mus musculus. Kind of data set: Antiinflammatory activity in DSS-induced male C57BL/6 mouse model of inflammatory bowel disease assessed as increase in colon length at 15 mg/kg/day, po via gavage measured upto 14 days relative to control. The format is functional. As to conditions: time <= 14 day.
The test system of data set [30] is Mus musculus. Kind of data set: Antiinflammatory activity in DSS-induced male C57BL/6 mouse model assessed as inhibition of IL-22 level in colon at 50 to 200 microM/Kg. Type of data set: functional, organism-based. As to conditions: dose 50-200 µM/Kg.
The test system of data set [31] is Mus musculus. The experiment in a line: Antiinflammatory activity in DSS-induced male C57BL/6 mouse model of inflammatory bowel disease assessed as upregulation of ZO-1 expression in colon at 50 to 200 microM/Kg by immunohistochemical analysis. As to conditions: dose 50-200 µM/Kg. Type of data set: functional, organism-based.
Data set [32] deals with Mus musculus. The experiment in a line: Antiinflammatory activity in DSS-induced male C57BL/6 mouse model assessed as inhibition of TNF-alpha level in colon at 50 to 200 microM/Kg. As to conditions: dose 50-200 µM/Kg. The format is functional, organism-based.
The species named for data set [33] is Mus musculus. Kind of data set: Antiinflammatory activity in DSS-induced male C57BL/6 mouse model of inflammatory bowel disease assessed as reduction in TLR8 level. The format is functional, organism-based.

Calls of active or inactive are those of the source. The calls are words filed in the database; no cut-off is given here. Bounds are passed on as bounds.

`CC(=O)OC[C@H]1O[C@@H](OC2=C(C)OC(=C(C)C)C2=O)[C@H](OC(C)=O)[C@@H](OC(C)=O)[C@@H]1OC(C)=O`: the Activity entry in [1] is “Non-toxic”; in data set [2], “Non-toxic”; in data set [4], “Non-toxic”; in the data set with Mus musculus [5] it was 91.4%; in data set [6], “Non-toxic”; in data set [8] it was “Non-toxic”. Moreover, the Activity result in data set [9], in [10], in data set [12], in data set [14], in [15] and in [16] was “Non-toxic” throughout. Also, the Activity entry in data set [17], in data set [18], in [20], in data set [21], in data set [22] and in [23] was “Non-toxic” each time. Further, the Activity result in [24] is “Non-toxic”. Moreover, the Drug metabolism result in data set [3] is “metabolite_detected”. Further, the LD50 at 840 h in data set [7] is over 500 mg/kg. Besides, the outcome with Mus musculus [11], with Mus musculus [13] and in the data set on Mus musculus [19] was Active.

Consider `CC(C)=C1OC(C)=C(O[C@@H]2O[C@H](CO)[C@@H](O)[C@H](O)[C@H]2O)C1=O`, for which the Activity in the data set with Mus musculus [25] turned out to be 69.4%; with Mus musculus [29] it was 79.1%. In addition, in the data set with Mus musculus [26], the outcome was inactive. Besides, the outcome in the data set listed under Mus musculus [27], in the data set on Mus musculus [28], with Mus musculus [30], in the data set with Mus musculus [31], in the data set on Mus musculus [32] and in the data set filed under Mus musculus [33] was Active.

Broadly, the LD50 is the dose at which mortality reaches 50%.

The values are drawn from ChEMBL document CHEMBL6120946, “From Hit to Lead: Discovery of First-In-Class Furanone Glycoside D228 Derived from Chimonanthus salicifolius for the Treatment of Inflammatory Bowel Disease” (J Med Chem, 2024).
